Literature values in patent EP1214078B1, “FORMULATIONS FOR PARENTERAL USE OF ES[…] AND AMINO ACIDS” (priority 1999, dated 2001).

Conditions: patients, slow intravenous injection or bolus, 300 mg/day

C[C@]12CC[C@@H]3c4ccc(OC(=O)N(CCCl)CCCl)cc4CC[C@H]3[C@@H]1CC[C@@H]2OP(=O)(O)O [estramustine phosphate, Estramustine phosphate]
side effects at the peripheral intravenous injection sites: thrombophlebitis and local irritations
